Results: patent publication US8754116B2, “Macrocyclic inhibitors of hepatitis C virus” (Janssen R&D Ireland, priority 2005, dated 2014)

How the values were obtained:
HCV NS3/4A protease = HCV NS3/4A protease (Hepatitis C virus genotype 1a, UniProt P27958); assay: Inhibition assay (enzymatic assay, depsipeptide substrate hydrolysis); type: biochemical; further: full-length NS3 protease 1 nM, 25 µM NS4A cofactor, 0.5 µM substrate
Procedure: [Landro, 1997 # Biochem 36 9340-9348]. […] The solutions were stored at −20° C. between measurements.
[Liu, 1999 Analytical Biochemistry 267 331-335].

[1] = test system: HCV replicons (NS3-NS5B regions of HCV type 1b) in Huh-7 luc/neo (Huh-Luc) cells; assay: Replicon assay (HCV RNA replication, luciferase read-out); type: cell-based; details: Hepatitis C virus, Huh-7, 72 h, incubation of three days, luciferase activity
Procedure: The in vitro antiviral activity against HCV of the compounds of formula (I) was tested in a cellular HCV replicon system based on Lohmann et al. (1999) Science 285:110-113, with the further modifications described by Krieger et al. (2001) Journal of Virology 75: 4614-4624, which is further exemplified in the examples section. This model, while not a complete infection model for HCV, is widely accepted as the most robust and efficient model of autonomous HCV RNA replication currently available. […] It will be appreciated that it is important to distinguish between compounds that specifically interfere with HCV functions from those that exert cytotoxic or cytostatic effects in the HCV replicon model, and as a consequence cause a decrease in HCV RNA or linked reporter enzyme concentration. […]
The replicon cells were plated in 384 well plates in the presence of the test and control compounds which were added in various concentrations. Following an incubation of three days, HCV replication was measured by assaying luciferase activity (using standard luciferase assay substrates and reagents and a Perkin Elmer ViewLux™ ultraHTS microplate imager). […] The inhibitory activity of the compound on luciferase activity was monitored on the Huh-Luc cells, enabling a dose-response curve for each test compound.

Sequence of HCV NS3/4A protease (P27958 1027-1657): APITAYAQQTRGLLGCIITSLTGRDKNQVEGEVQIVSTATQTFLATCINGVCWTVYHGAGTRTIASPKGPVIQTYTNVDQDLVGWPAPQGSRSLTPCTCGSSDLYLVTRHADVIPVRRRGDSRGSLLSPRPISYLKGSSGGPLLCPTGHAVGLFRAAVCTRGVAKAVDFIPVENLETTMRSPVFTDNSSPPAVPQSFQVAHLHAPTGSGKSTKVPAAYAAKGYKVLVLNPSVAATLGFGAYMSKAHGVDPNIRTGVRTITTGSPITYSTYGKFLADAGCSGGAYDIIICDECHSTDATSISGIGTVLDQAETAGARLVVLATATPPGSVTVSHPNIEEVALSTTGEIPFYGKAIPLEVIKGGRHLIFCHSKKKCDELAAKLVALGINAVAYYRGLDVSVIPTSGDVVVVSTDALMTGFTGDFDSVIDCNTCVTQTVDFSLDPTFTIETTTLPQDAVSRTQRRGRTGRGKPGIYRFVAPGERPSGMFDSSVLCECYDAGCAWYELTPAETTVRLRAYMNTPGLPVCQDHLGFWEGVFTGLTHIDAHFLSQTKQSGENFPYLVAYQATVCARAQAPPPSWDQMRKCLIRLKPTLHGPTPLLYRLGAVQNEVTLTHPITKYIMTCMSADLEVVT

SMILES | Ki (HCV NS3/4A protease) | EC50 [1]
CN1CCCC/C=C\[C@@H]2C[C@@]2(C(=O)O)NC(=O)[C@@H]2C[C@@H](n3nnc(-c4ccccc4)n3)C[C@H]2C1=O [Compound 9, 17-(5-phenyltetrazol-2-yl)-13-methyl-2,14-dioxo-3,13-diazatricyclo[13.3.0.0^4,6]octadec-7-ene-4-carboxylic acid] | > 1000 nM | > 10 µM
CN1CCCC/C=C\[C@@H]2C[C@@]2(C(=O)NS(=O)(=O)C2CC2)NC(=O)[C@@H]2C[C@@H](n3nnc(-c4ccccc4)n3)C[C@H]2C1=O [Compound 10, N-[17-(5-phenyltetrazol-2-yl)-13-methyl-2,14-dioxo-3,13-diazatricyclo[13.3.0.0^4,6]octadec-7-ene-4-carbonyl](cyclopropyl)sulfonamide] | 30 nM | 3.43 µM
